This is an account of results in ChEMBL document CHEMBL5465560, “Selectivity Literature for EUbOPEN Chemogenomic Library” (2024).

One experiment addresses Ephrin type-A receptor 4 (Homo sapiens, UniProt P54764). The experiment is described as follows: Selectivity interaction (Kinase panel (Z-LYTE Assay)) EUB0001632a EPHA4. The note with it: at 10 µM.
Experiment [1] concerns the target Fibroblast growth factor receptor 1 (Homo sapiens, UniProt P11362). The experiment in a line: Selectivity interaction (Kinase panel (Z-LYTE Assay)) EUB0001632a FGFR1. The following applies: at 10 µM.
Experiment [2] addresses T1, Serine/threonine-protein kinase Sgk3 (Homo sapiens) (UniProt Q96BR1).
T1 sequence (whole entry): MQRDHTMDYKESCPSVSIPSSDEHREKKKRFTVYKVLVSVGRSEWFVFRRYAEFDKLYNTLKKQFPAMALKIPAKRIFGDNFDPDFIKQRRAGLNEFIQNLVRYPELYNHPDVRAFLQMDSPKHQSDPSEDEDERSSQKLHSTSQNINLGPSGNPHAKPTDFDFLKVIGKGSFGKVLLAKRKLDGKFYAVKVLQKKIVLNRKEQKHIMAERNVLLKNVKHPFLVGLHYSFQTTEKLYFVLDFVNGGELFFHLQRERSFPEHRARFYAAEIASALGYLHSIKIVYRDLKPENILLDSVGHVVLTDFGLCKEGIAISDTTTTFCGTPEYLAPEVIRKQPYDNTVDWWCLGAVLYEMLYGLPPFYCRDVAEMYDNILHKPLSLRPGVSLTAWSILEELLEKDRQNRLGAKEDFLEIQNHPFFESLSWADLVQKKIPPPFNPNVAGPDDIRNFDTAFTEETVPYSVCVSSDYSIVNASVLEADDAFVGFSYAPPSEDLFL
The experiment in a line: Selectivity interaction (KinomeScan (DiscoverX)) EUB0000666a SGK3. The following applies: at 10 µM.

The target of another experiment is Activated CDC42 kinase 1 (Homo sapiens, UniProt Q07912). The experiment in a line: Selectivity interaction (KinomeScan (DiscoverX)) EUB0000666a TNK2. The following applies: at 10 µM.
Activated CDC42 kinase 1, sequence (Q07912 whole entry, looked up): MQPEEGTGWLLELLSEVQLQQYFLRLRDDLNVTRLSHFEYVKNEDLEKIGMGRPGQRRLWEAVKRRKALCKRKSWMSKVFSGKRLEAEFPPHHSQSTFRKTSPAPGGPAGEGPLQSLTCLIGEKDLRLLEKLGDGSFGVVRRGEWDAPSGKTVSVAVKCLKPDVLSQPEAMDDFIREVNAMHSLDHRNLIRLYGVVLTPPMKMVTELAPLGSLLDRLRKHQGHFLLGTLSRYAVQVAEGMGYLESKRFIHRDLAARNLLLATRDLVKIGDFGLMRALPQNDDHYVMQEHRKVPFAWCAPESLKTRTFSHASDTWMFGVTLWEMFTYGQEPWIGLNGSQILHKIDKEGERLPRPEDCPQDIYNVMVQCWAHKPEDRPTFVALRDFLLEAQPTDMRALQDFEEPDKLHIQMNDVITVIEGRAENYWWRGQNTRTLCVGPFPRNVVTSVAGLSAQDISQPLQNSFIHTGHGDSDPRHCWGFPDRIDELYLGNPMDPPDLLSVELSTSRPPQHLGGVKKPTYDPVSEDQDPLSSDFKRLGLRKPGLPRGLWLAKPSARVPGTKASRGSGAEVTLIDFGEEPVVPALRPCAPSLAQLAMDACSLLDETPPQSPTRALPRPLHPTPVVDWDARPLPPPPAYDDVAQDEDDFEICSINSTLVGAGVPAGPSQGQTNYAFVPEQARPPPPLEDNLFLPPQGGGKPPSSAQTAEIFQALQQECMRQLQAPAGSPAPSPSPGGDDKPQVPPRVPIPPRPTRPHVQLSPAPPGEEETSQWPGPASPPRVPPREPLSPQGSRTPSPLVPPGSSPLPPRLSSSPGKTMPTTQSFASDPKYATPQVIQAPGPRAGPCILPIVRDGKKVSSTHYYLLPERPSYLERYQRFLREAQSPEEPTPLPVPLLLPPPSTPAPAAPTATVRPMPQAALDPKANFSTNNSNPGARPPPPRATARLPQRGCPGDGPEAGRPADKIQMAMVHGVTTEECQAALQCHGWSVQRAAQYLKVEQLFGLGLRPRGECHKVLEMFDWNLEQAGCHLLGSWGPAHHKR
Experiment [3] deals with Cyclin-dependent kinase 9 (Homo sapiens, UniProt P50750). The experiment is described as follows: Selectivity interaction (KinomeScan (DiscoverX)) EUB0000229b CDK9. The following applies: at 10 µM.
For experiment [4], the target named is Phosphatidylinositol 4,5-bisphosphate 3-kinase catalytic subunit beta isoform (Homo sapiens) (UniProt P42338). The experiment is described as follows: Selectivity interaction (KinomeScan (DiscoverX)) EUB0001079a PIK3CB. The following applies: at 1 µM.
Experiment [5] deals with Receptor tyrosine-protein kinase erbB-3 (Homo sapiens) (UniProt P21860). The experiment in a line: Selectivity interaction (KinomeScan (DiscoverX)) EUB0001619a ERBB3. The following applies: at 1 µM.
The target in experiment [6] is T2, Phosphatidylinositol 5-phosphate 4-kinase type-2 alpha (Homo sapiens) (UniProt P48426).
T2 sequence (whole entry): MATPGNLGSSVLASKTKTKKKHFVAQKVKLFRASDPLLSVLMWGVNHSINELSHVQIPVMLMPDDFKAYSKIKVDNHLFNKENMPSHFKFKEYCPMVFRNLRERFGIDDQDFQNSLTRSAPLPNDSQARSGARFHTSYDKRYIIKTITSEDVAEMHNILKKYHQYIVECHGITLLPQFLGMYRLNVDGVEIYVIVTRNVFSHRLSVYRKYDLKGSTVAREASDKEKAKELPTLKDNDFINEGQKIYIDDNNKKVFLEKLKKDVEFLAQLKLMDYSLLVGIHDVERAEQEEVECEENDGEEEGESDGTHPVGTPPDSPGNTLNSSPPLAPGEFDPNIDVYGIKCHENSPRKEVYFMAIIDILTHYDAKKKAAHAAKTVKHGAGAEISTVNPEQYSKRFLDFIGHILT
The following applies: at 1 µM.

For experiment [7], the target named is Platelet-derived growth factor receptor beta (Homo sapiens, UniProt P09619). The experiment is described as follows: Selectivity interaction (Millipore kinase profiler) EUB0000124b PDGFRB. The note with it: at 10 µM.
Experiment [8] addresses T3, Ephrin type-A receptor 8 (Homo sapiens) (UniProt P29322).
T3 sequence (whole entry): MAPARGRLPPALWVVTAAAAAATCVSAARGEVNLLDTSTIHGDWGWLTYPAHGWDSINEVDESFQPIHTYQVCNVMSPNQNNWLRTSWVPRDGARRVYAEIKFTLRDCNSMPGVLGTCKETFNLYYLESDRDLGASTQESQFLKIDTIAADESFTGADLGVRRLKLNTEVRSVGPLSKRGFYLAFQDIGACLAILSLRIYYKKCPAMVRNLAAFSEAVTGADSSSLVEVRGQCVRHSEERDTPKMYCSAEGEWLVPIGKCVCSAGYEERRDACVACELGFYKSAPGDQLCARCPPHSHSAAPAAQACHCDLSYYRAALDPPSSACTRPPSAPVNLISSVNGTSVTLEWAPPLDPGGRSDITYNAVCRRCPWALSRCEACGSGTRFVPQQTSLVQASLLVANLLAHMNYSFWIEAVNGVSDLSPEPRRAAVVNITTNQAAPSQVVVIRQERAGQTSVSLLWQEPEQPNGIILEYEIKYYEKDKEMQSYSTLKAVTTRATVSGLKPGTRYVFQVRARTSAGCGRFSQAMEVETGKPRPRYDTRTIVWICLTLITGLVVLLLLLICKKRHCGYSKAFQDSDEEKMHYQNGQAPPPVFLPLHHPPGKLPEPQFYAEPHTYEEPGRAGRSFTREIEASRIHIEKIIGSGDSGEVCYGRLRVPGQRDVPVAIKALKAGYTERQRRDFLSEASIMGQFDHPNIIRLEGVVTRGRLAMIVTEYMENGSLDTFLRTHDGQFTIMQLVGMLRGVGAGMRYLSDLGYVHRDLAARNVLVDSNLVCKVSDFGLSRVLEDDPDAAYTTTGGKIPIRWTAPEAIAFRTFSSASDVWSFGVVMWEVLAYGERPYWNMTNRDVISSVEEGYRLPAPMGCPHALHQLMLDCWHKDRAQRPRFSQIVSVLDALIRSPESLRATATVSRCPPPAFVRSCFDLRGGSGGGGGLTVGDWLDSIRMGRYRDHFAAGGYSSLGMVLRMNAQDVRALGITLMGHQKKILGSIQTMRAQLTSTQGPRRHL
The experiment is described as follows: Selectivity interaction (KinomeScan (DiscoverX)) EUB0001049a EPHA8. The note with it: at 1 µM.

Experiment [9] has as its target Angiopoietin-1 receptor (Homo sapiens) (UniProt Q02763). The experiment is described as follows: (§1) Selectivity interaction (ProQinase) EUB0000171b TEK.
The subject of experiment [10] is Angiopoietin-1 receptor (Homo sapiens), Q02763 [R849W]. The experiment is described as §1.
The subject of experiment [11] is Angiopoietin-1 receptor (Homo sapiens), Q02763 [Y897S]. The experiment is described as §1.
Experiment [12] has as its target Tyrosine-protein kinase SYK (Homo sapiens, UniProt P43405). The experiment in a line: Selectivity interaction (KinomeScan (DiscoverX)) EUB0000092b SYK. The note with it: at 10 µM.
In experiment [13] the target is Calcium/calmodulin-dependent protein kinase type 1G (Homo sapiens) (UniProt Q96NX5). The experiment in a line: Selectivity interaction (Kinase panel (DSF assay)) EUB0001559a CAMK1G.
Calcium/calmodulin-dependent protein kinase type 1G (Homo sapiens), sequence (Q96NX5 whole entry): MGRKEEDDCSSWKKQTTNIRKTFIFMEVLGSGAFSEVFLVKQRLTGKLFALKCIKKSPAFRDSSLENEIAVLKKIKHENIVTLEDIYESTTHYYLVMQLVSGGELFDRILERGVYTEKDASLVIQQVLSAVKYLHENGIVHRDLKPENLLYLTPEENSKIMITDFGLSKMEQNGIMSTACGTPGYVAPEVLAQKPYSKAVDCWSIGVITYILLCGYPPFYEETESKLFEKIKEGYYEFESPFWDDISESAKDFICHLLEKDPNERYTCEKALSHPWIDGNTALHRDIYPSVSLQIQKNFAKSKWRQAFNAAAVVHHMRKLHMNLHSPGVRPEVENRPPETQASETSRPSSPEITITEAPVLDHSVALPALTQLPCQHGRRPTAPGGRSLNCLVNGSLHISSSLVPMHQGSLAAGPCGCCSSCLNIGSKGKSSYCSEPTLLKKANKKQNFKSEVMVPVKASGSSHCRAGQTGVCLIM
The target in experiment [14] is Calcium/calmodulin-dependent protein kinase type 1 (Homo sapiens) (UniProt Q14012). The experiment is described as follows: Selectivity interaction (KinomeScan (DiscoverX)) EUB0000045b CAMK1.
Calcium/calmodulin-dependent protein kinase type 1 (Homo sapiens), sequence (Q14012 whole entry, looked up): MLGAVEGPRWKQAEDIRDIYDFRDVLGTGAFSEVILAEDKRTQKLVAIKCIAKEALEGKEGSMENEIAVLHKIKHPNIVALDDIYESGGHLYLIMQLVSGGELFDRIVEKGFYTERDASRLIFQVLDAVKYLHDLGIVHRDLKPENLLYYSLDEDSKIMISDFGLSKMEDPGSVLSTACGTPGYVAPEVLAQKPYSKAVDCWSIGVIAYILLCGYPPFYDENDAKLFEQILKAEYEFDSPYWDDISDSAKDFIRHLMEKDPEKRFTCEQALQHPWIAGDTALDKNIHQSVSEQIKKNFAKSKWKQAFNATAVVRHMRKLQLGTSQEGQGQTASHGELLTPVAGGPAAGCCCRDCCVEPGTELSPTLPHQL
Experiment [15] deals with Interleukin-1 receptor-associated kinase 1 (Homo sapiens) (UniProt P51617). The experiment in a line: Selectivity interaction (Upstate Kinase Profiler service (Millipore)) EUB0000056c IRAK1. The note with it: at 1 µM.
Interleukin-1 receptor-associated kinase 1 (Homo sapiens), sequence (P51617 whole entry, looked up): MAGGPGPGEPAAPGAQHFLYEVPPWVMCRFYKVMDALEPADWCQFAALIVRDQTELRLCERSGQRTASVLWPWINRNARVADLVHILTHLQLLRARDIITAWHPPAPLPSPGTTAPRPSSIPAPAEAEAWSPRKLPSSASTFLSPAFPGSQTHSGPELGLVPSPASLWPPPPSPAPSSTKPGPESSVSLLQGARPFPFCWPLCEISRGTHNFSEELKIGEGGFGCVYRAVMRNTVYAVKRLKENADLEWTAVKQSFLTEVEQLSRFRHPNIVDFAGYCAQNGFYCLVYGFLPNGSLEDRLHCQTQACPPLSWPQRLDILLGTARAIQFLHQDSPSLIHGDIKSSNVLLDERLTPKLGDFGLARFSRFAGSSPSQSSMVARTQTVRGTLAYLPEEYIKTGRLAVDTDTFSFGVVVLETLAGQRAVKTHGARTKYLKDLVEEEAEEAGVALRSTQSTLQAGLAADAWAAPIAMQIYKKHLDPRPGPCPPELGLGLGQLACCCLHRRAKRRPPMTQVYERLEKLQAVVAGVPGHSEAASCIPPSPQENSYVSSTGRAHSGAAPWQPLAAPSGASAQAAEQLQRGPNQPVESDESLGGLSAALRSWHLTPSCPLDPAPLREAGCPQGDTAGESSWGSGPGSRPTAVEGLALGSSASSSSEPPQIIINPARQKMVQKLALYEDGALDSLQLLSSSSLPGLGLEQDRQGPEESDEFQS

Angiopoietin-1 receptor (Homo sapiens), Q02763 [R849W], sequence (Q02763 whole entry R849W): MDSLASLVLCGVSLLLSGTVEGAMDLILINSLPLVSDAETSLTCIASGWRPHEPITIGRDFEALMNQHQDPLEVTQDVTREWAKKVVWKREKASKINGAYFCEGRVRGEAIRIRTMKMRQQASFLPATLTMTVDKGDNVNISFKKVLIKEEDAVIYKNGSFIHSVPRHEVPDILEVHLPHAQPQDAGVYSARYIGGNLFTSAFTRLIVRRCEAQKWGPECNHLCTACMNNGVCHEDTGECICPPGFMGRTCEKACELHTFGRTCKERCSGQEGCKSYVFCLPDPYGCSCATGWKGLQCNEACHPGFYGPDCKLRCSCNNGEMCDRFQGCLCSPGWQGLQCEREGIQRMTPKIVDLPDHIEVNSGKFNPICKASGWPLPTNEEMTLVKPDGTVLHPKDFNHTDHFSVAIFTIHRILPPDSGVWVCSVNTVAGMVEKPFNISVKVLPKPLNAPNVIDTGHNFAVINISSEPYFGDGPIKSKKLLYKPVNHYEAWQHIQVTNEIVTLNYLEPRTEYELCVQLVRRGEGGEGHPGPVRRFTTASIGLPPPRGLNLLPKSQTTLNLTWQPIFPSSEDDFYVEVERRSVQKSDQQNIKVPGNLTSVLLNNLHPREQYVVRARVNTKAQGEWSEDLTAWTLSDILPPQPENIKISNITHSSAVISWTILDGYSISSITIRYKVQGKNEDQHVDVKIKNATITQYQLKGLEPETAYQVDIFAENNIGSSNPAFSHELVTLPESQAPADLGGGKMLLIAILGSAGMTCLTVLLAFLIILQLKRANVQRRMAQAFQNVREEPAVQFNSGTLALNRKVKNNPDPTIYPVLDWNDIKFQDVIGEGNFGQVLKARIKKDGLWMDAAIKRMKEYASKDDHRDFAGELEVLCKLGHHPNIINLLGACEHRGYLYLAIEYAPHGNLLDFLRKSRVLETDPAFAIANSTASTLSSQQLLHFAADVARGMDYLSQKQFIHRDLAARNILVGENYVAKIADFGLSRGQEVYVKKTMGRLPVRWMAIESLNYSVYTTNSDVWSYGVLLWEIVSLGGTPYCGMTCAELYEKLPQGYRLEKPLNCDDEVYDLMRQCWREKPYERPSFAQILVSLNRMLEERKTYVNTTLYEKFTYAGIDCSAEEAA
Angiopoietin-1 receptor (Homo sapiens), Q02763 [Y897S], sequence (Q02763 whole entry Y897S): as the sequence (Q02763 whole entry R849W) above, with W849R, Y897S counted along it
Angiopoietin-1 receptor (Homo sapiens), sequence (Q02763 whole entry): as the sequence (Q02763 whole entry R849W) above, with W849R counted along it
Ephrin type-A receptor 4, sequence (P54764 whole entry): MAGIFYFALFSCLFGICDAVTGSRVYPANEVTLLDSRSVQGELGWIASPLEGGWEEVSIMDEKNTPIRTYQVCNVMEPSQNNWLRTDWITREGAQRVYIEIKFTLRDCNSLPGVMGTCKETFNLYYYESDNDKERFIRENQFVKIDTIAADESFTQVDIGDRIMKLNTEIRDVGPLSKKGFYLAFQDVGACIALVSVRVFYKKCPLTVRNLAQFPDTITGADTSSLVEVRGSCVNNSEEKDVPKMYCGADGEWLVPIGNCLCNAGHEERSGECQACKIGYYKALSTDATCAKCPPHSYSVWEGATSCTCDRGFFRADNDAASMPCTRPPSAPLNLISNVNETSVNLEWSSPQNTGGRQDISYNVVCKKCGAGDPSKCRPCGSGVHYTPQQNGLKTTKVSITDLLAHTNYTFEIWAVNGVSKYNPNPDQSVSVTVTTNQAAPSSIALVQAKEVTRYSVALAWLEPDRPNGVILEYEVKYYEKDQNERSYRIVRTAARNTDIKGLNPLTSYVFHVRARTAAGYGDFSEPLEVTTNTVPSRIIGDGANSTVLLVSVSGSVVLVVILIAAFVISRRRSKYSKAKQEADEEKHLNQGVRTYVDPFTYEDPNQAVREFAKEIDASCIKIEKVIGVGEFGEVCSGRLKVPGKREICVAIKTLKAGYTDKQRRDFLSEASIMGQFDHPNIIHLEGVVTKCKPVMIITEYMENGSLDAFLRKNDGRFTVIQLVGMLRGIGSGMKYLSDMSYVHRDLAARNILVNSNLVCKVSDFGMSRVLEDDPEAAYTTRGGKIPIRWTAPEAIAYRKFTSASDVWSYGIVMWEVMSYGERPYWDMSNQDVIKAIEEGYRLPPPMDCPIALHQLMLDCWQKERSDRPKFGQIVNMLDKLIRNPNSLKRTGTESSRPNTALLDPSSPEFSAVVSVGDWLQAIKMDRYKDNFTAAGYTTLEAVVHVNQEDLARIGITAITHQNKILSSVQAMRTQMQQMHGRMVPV

As for `Cn1cc(-n2cnc3c(NCc4nc5cc(Cl)c(Cl)cc5[nH]4)nc(N4CCOCC4)nc32)cn1`, the % of control is -5.33% at Ephrin type-A receptor 4 and 30.2% in experiment [1].

Turning to `O=C(NOC[C@H](O)CO)c1ccc(F)c(F)c1Nc1ccc(I)cc1F`, the % of control in experiment [2] was found to be 89%; on Activated CDC42 kinase 1 it was 72%. Regarding `COc1cc(N(C)c2ccnc3ccc(C(F)(F)F)cc23)cc(OC)c1OC`, the % binding in experiment [3] came out at 81%.

On to `Nc1cnc(N2CCc3cc(S(=O)(=O)Nc4c(F)cc(Cl)cc4F)cc(N4CCCC4=O)c32)nc1` [TP-020n], for which, in experiment [4], the % of control turned out to be 87%. As to `N#Cc1cccc(-c2c[nH]c3ncnc(N4CCOCC4)c23)c1`, in experiment [5], the % of control amounted to 51%.

For the compound `CC[C@@H](Nc1c(C#N)c(-c2ccc(-c3cccc(C)c3F)cc2)nc2cnccc12)C(=O)O` [BAY-091], the % of inhibition in [6] was 142%. As for `CC(=O)Nc1cccc(-n2c(=O)n(C3CC3)c(=O)c3c(Nc4ccc(I)cc4F)n(C)c(=O)c(C)c32)c1`, the % of control in experiment [7] is 111%. As to `COc1cc(Nc2nc(C)cc(-c3cnn4nc(OC)ccc34)n2)cc(C(F)(F)F)c1`, in experiment [8], the % of control was 81%. As for `C=CC(=O)Nc1cccc(C(=O)Nc2ccc(Nc3cc(-c4[nH]c(SC)nc4C)ccn3)cc2)c1`, the % of control in [9] (at 1 µM) was 85%; in [9] (at 5 µM) it was 81%; in experiment [10] (at 1 µM) it was 92%; in experiment [10] (at 5 µM), 107%; in experiment [11] (at 1 µM) it was 85%; in experiment [11] (at 5 µM), 85%.

For `CCC(=O)N1CCN(c2ccc(-n3c(=O)ccc4cnc5ccc(-c6cnc7ccccc7c6)cc5c43)cc2C(F)(F)F)CC1`, the % of control in [12] came to 78%. `CN(C(=O)c1cnn2cccnc12)c1cc2c(cc1N1CCOCC1)C(=O)N(C[C@@H](F)C(C)(C)O)C2`: the dTM in [13] is -0.6 K.

As for `C=CC(=O)Nc1cc(-n2c(=O)ccc3cnc4ccc(-c5ccc(NS(C)(=O)=O)cc5)cc4c32)ccc1C`, the % of control was 100% in experiment [14] (at 1 µM) and 88% in experiment [14] (at 10 µM).

`Cc1ccc(-c2ccc3c(ccc4sc5c(c43)NC[C@@H](C)NC5=O)n2)cn1`: the % of inhibition in experiment [15] came to 22%.
